# Test results published in US7259146B2, “Neuroprotective peptides” (Ortho-McNeil Pharmaceutical, Inc., priority 2000, dated 2007).
# “Also recorded” adds a separate entry of the source.
# What was measured:
# [1] = system: spontaneous hypertensive rats rendered ischemic; assay: Experimental model of cerebral ischemia (tandem CCA/MCA occlusion), infarct volume; assay type: in vivo, rat
# Procedure: Male spontaneous hypertensive rats (Charles River) weighing between 250–300 g were weighed and then anesthetized with ketamine (100 mg/ml)/xylazine (20 mg/ml) cocktail (1.2 ml/kg; i.p.). The level of anesthetic was assessed by corneal reflex (air puff to eye) and leg jerk in response to tail or foot pinch. Once the rat was anesthetized, it was placed on a small animal surgical board and restrained during the surgical procedure. The rat's body temperature was monitored continuously with a rectal probe and maintained at 37° C. with a homeostatic heating pad.
# Rats were rendered ischemic by tandem occlusion of the left common carotid artery and the left middle cerebral artery for 2 h followed by 22 h of reperfusion using a modification of the technique described by Brint and co-workers (J. Cereb Blood Flow Metab 8:474–485, 1988). Specifically, the left CCA was isolated through an incision in the ventral surface of the neck. For isolation of the ipsilateral MCA, a second incision was made between the lateral canthus of the left eye and the corresponding external auditory canal to bare the underlying skull. […]
# Twenty-hours prior to the onset of ischemia, an osmotic mini-pump (Model 1003D; Alza) filled with vehicle or EPO was placed between the scapula of the rat. […] Twenty-two hours later, the rats were evaluated for behavioral performance, a blood sample was collected for terminal plasma levels of EPO and then the rat was euthanized, brain removed, sectioned and stained for histological analysis.
# On Day One, the rats were rendered ischemic as described above. […] Twenty-two hours later, the rats were evaluated for behavioral performance, a blood sample was collected for terminal plasma levels of EPO and then the rat was euthanized, brain removed, sectioned and stained for histological analysis.
# On Day One, the rats were rendered ischemic as described above. […] Twenty-two hours later, the rats were evaluated for behavioral performance, a blood sample was collected for terminal plasma levels of EPO and then the rat was euthanized, brain removed, sectioned and stained for histological analysis. […]
# [2] = system: bak; assay: EPO induced gene expression in PC12 cells (quantitative RT-PCR); assay type: cell-based, rat; details: PC-12 cells
# Procedure: (§1) PC-12 cells (from a rat Pheochromocytoma) were cultured on poly-D-Lysine coated tissue culture plastic in DMEM containing 10% FBS and 5% Horse serum. To induce the neuronal phenotype in PC-12 cells, serum was removed and the cells were treated with NGF (50 ng/ml). Cells were grown for 7 days in the presence of the NGF then used for experiments.
# (§2) PC-12 cells were cultured as described in Example 1 in a 10 cm poly-D-lysine coated tissue culture dish. Cells were incubated in the presence of 1 U/ml of EPO for 24 hr. Total RNAn was then isolated using a Qiagen RNAeasy mini prep kit and used for RT-PCR.
# (§3) Real time reverse transcription and PCR were performed in a single reaction using a light cycler and an RNA amplification kit from Roche Molecular Biochemicals. RNA was quantitated and added in equal amounts to reaction mix that includes the dsDNA specific dye SYBR green I. Specific PCR reaction products are quantitated by detecting the amount of fluorescence in the reaction at each PCR cycle. Final analysis was performed using the data analysis software included with the light cycler instrument.
# [3] = system: bclXL; assay: as above; assay type: cell-based, rat; details: PC-12 cells
# Procedure: as §1, §2, §3
# [4] = 1 nm EPO for 24 hr (FIG. 3 legend)
substance,measurement,setting,value
"EPO: purified, recombinant human EPO (rhEPO), formulated and distributed under the trademarks EPREX, ERYPO or PROCRIT",infarct volume / protection against ischemic injury,"[1]; Study I: 132 or 1321 U/day continuous iv infusion via osmotic mini-pump, started before ischemia",significantly reduced infarct volume; also recorded: protects against ischemic injury
same,protection against ischemic damage,"[1]; Study II: single iv bolus 15 min post-occlusion, 1000, 2500 or 5000 U/kg",did not protect against ischemic damage; also recorded: does not protect against ischemic injury
same,infarct volume / protection against ischemic injury,"[1]; Study III: repeat iv bolus 2500 U/kg at 15 min, 2 h, 4 h and 6 h post-occlusion",significant decrease in infarct volume; also recorded: protects against ischemic injury
same,decrease in the expression of the pro-apoptotic Bak,[2]; [4],greater than 5 fold
same,"decrease in the expression of the pro-apoptotic gene, bak",[2]; EPO 1 U/ml for 24 hr,5 fold
same,"increase in the expression of the anti-apoptotic gene, bclXL",[3]; [4],6 fold
same,"increase in the expression of the anti-apoptotic gene, bclXL",[3]; EPO 1 U/ml for 24 hr,6 fold
